In patent publication US3974135A, “Synthetic decapeptide having the activity of the luteinizing hormone releasing hormone and method for producing the same” (priority 1972, dated 1976):
Where “and” joins values, the source holds several entries; their conditions need not be identical. Equal values may be shown once.

Tested on: LH
Test: LRH assay in vivo in rats: serum LH by radioimmunoassay before and after injection of the peptide
Settings: for increase of the LH level: in vivo assay in rats; for mμg LH/ml serum before: before injection
Experimental: The LRH assay was performed by the procedure of Ramirez and McCann (Endocrinology 73, 193 (1963) ). Serum assays for LH were performed in duplicate by the double antibody radioimmuno assay of Niswender et al. (Proc. Soc. Exp. Biol. Med. 128, 807 (1968)) using antiovine LH serum and ovine LH-^131 I. The activity was determined by comparison of LH levels before and after injection of the peptide.

SMILES	doses at which it releases LRH (active dose) [ng]	increase of the LH level (dose of 25 ng) [times]	increase of the LH level (dose of 50 ng)	potency compared among the three decapeptides I, II, III (rat, in vivo)	mμg LH/ml serum before (dose level 25 μg)	mμg LH/ml serum after (dose level 200 μg, after injection) [mμg LH/ml serum]	mμg LH/ml serum before (dose level 200 μg)
CC(C)C[C@H](NC(=O)CNC(=O)[C@H](Cc1ccc(O)cc1)NC(=O)[C@H](CO)NC(=O)[C@H](Cc1c[nH]c2ccccc12)NC(=O)[C@H](Cc1c[nH]cn1)NC(=O)[C@@H]1CCC(=O)N1)C(=O)N[C@@H](CCCNC(=N)N)C(=O)N1CCC[C@H]1C(=O)NCC(N)=O [I, pGlu-His-Trp-Ser-Tyr-Gly-Leu-Arg-Pro-Gly-NH2]	1 to 25	30	maximum increase	most potent			
CC(C)C[C@H](NC(=O)CNC(=O)[C@H](Cc1ccc(O)cc1)NC(=O)[C@H](CO)NC(=O)[C@H](Cc1c[nH]c2ccccc12)NC(=O)[C@H](Cc1c[nH]cn1)NC(=O)[C@@H]1CCC(=O)N1)C(=O)N[C@@H](CCCNC(=N)N)C(=O)N1CCC[C@H]1C(=O)NCC(=O)O [II, pGlu-His-Trp-Ser-Tyr-Gly-Leu-Arg-Pro-Gly-OH]					4.4 mμg LH/ml serum and 5.8 mμg LH/ml serum	> 285.0	< 4.0 mμg LH/ml serum and 4.0 mμg LH/ml serum
